The results in this text go back to patent US9624215B2, “Amine derivative or salt thereof” (TOYAMA CHEMICAL CO., LTD., priority 2012, dated 2017).

A value given as a limit tells only on which side of the number the result lay.

The assay has as its system normal human neonatal foreskin epidermal keratinocytes (NHEK-F). Kind of assay: Cell proliferation inhibition test. The assay is classed as cell-based. The conditions noted are these: Keratinocyte, 72 h, NHEK-F cells, three days incubation, ATPlite or CellTiterGlo, read-out: IC50 (concentration of the compound at which the cell count is reduced by 50%). In a few lines: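 IC50 is the compound level halving cell count relative to untreated wells, with counts from ATP-based luminescence (ATPlite or CellTiterGlo). Readout followed 3 days of compound exposure of overnight-attached neonatal foreskin keratinocytes (2×10^3/well, Humedia-EG2 medium).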
For orientation: Cellular ATP, detected with luciferase, serves as a proxy for viable cell number.
`Cc1cc2cc(Nc3ncc(C4CC4)cc3C(=O)O)ccc2n1CC(C)C` [Example 550, 5-cyclopropyl-2-((1-isobutyl-2-methyl-1H-indol-5-yl)amino)nicotinic acid]: the IC50 was 10 to 100 nM. The same measure for `O=C(O)c1cc(C2CC2)cnc1Nc1cc2ccn(Cc3ccccc3)c2cc1F` [Example 552, 2-((1-benzyl-6-fluoro-1H-indol-5-yl)amino)-5-cyclopropylnicotinic acid]: at most 10 nM.

As to `O=C(O)c1cc(C2CC2)cnc1Nc1c(F)cc2c(ccn2Cc2ccccc2)c1F` [Example 554, 2-((1-benzyl-4,6-difluoro-1H-indol-5-yl)amino)-5-cyclopropylnicotinic acid], the IC50 is at most 10 nM. The same measure for `Cn1cc(-c2cccc(F)c2)c2cc(Nc3ncc(C4CC4)cc3C(=O)O)ccc21` [Example 559, 5-Cyclopropyl-2-((3-(3-fluorophenyl)-1-methyl-1H-indol-5-yl)amino)nicotinic acid]: 10 to 100 nM; for `Cn1cc(-c2ccc(F)cc2)c2cc(Nc3ncc(C4CC4)cc3C(=O)O)ccc21` [Example 561, 5-cyclopropyl-2-((3-(4-fluorophenyl)-1-methyl-1H-indol-5-yl)amino)nicotinic acid]: 10 to 100 nM; for `CC(C)Cn1c(=O)sc2cc(Nc3ncc(C4CC4)cc3C(=O)O)ccc21` [Example 563, 5-Cyclopropyl-2-((3-isobutyl-2-oxo-2,3-dihydro-1,3-benzothiazol-6-yl)amino)nicotinic acid]: 10 to 100 nM. `Cc1ccccc1-c1cn(C)c2ccc(Nc3ncc(C4CC4)cc3C(=O)O)cc12` [Example 567, 5-cyclopropyl-2-((1-methyl-3-(2-methylphenyl)-1H-indol-5-yl)amino)nicotinic acid]: the IC50 lay in the range of 10 to 100 nM. The same measure for `Cc1cccc(-c2cn(C)c3ccc(Nc4ncc(C5CC5)cc4C(=O)O)cc23)c1` [Example 569, 5-cyclopropyl-2-((1-methyl-3-(3-methylphenyl)-1H-indol-5-yl)amino)nicotinic acid]: 100 to 1000 nM. Take `Cc1ccc(-c2cn(C)c3ccc(Nc4ncc(C5CC5)cc4C(=O)O)cc23)cc1` [Example 571, 5-cyclopropyl-2-((1-methyl-3-(4-methylphenyl)-1H-indol-5-yl)amino)nicotinic acid]: the IC50 lay within 10 to 100 nM. Consider `Cc1c(Nc2ncc(C3CC3)cc2C(=O)O)ccc2c1ccn2Cc1ccccc1` [Example 573], for which the IC50 is at most 10 nM. As for `O=C(O)c1cc(C2CC2)cnc1Nc1ccc2c(ccn2C(=O)c2ccccc2)c1` [Example 575, 2-((1-benzoyl-1H-indol-5-yl)amino)-5-cyclopropylnicotinic acid], the figure is 10 to 100 nM; as for `COc1cccc(-c2cn(C)c3ccc(Nc4ncc(C5CC5)cc4C(=O)O)cc23)c1` [Example 577, 5-cyclopropyl-2-((3-(3-methoxyphenyl)-1-methyl-1H-indol-5-yl)amino)nicotinic acid], 100 to 1000 nM; as for `COc1ccc(-c2cn(C)c3ccc(Nc4ncc(C5CC5)cc4C(=O)O)cc23)cc1` [Example 579, 5-cyclopropyl-2-((3-(4-methoxyphenyl)-1-methyl-1H-indol-5-yl)amino)nicotinic acid], 100 to 1000 nM. On to `COc1ccccc1-c1cn(C)c2ccc(Nc3ncc(C4CC4)cc3C(=O)O)cc12` [Example 581, 5-cyclopropyl-2-((3-(2-methoxyphenyl)-1-methyl-1H-indol-5-yl)amino)nicotinic acid], for which the IC50 is 10 to 100 nM. As to `O=C(O)c1cc(C2CC2)cnc1Nc1ccc2c(ccn2C(=O)C2CCCCC2)c1` [Example 583, 2-((1-(cyclohexylcarbonyl)-1H-indol-5-yl)amino)-5-cyclopropylnicotinic acid], the IC50 is 10 to 100 nM. Turning to `Cn1ccc2cc(Nc3ncc(C4CC4)cc3C(=O)O)cc(-c3cc(F)cc(F)c3)c21` [Example 586, 5-cyclopropyl-2-((7-(3,5-difluorophenyl)-1-methyl-1H-indol-5-yl)amino)nicotinic acid], the IC50 is at most 10 nM. `Cn1ccc2cc(Nc3ncc(C4CC4)cc3C(=O)O)cc(-c3cccc(F)c3F)c21` [Example 587, 5-cyclopropyl-2-((7-(2,3-difluorophenyl)-1-methyl-1H-indol-5-yl)amino)nicotinic acid]: the IC50 was at most 10 nM. On to `Cn1ccc2cc(Nc3ncc(C4CC4)cc3C(=O)O)cc(-c3ccncc3F)c21` [Example 589, 5-cyclopropyl-2-((7-(3-fluoropyridin-4-yl)-1-methyl-1H-indol-5-yl)amino)nicotinic acid], for which the IC50 lay in the range of 10 to 100 nM. Consider `Cn1ccc2cc(Nc3ncc(C4CC4)cc3C(=O)O)cc(-c3cc(F)ccc3F)c21` [Example 590, 5-cyclopropyl-2-((7-(2,5-difluorophenyl)-1-methyl-1H-indol-5-yl)amino)nicotinic acid], for which the IC50 was at most 10 nM.

Take `Cn1ccc2cc(Nc3ncc(C4CC4)cc3C(=O)O)cc(-c3cncnc3)c21` [Example 591, 5-cyclopropyl-2-((1-methyl-7-(pyrimidin-5-yl)-1H-indol-5-yl)amino)nicotinic acid]: the IC50 lay within 100 to 1000 nM.

On to `Cn1ccc2cc(Nc3ncc(C4CC4)cc3C(=O)O)cc(CCC3CCCCC3)c21` [Example 593, 2-((7-(2-cyclohexylethyl)-1-methyl-1H-indol-5-yl)amino)-5-cyclopropylnicotinic acid], for which the IC50 is at most 10 nM. For `Cn1ccc2cc(Nc3ncc(C4CC4)cc3C(=O)O)cc(/C=C/C(C)(C)C)c21` [Example 594, 5-cyclopropyl-2-((7-((1E)-3,3-dimethylbut-1-en-1-yl)-1-methyl-1H-indol-5-yl)amino)nicotinic acid], the IC50 was at most 10 nM. As for `CCOCCCc1cc(Nc2ncc(C3CC3)cc2C(=O)O)cc2ccn(C)c12` [Example 603, 5-cyclopropyl-2-((7-(3-ethoxypropyl)-1-methyl-1H-indol-5-yl)amino)nicotinic acid], the figure is 10 to 100 nM; as for `CCO/C=C/c1cc(Nc2ncc(C3CC3)cc2C(=O)O)cc2ccn(C)c12` [Example 604, 5-cyclopropyl-2-((7-((E)-2-ethoxyethenyl)-1-methyl-1H-indol-5-yl)amino)nicotinic acid], 10 to 100 nM.

As for `CCOCCc1cc(Nc2ncc(C3CC3)cc2C(=O)O)cc2ccn(C)c12` [Example 605, 5-cyclopropyl-2-((7-(2-ethoxyethyl)-1-methyl-1H-indol-5-yl)amino)nicotinic acid], the IC50 lay within 10 to 100 nM.

For `Cn1ccc2cc(Nc3ncc(C4CC4)cc3C(=O)O)cc(C3CCCCC3)c21` [Example 607, 2-((7-cyclohexyl-1-methyl-1H-indol-5-yl)amino)-5-cyclopropylnicotinic acid], the IC50 is at most 10 nM. As to `COCCCc1cc(Nc2ncc(C3CC3)cc2C(=O)O)cc2ccn(CC(C)C)c12` [Example 608, 5-cyclopropyl-2-((7-(3-methoxypropyl)-1-(2-methylpropyl)-1H-indol-5-yl)amino)nicotinic acid], the IC50 is at most 10 nM.

As to `COCCCc1cc(Nc2ncc(C3CC3)cc2C(=O)O)cc2ccn(CC3CC3)c12` [Example 609, 5-cyclopropyl-2-((1-(cyclopropylmethyl)-7-(3-methoxypropyl)-1H-indol-5-yl)amino)nicotinic acid], the IC50 is at most 10 nM.

With `CCCCCn1ccc2cc(Nc3ncc(C4CC4)cc3C(=O)O)cc(CCCOC)c21` [Example 610, 5-cyclopropyl-2-((7-(3-methoxypropyl)-1-pentyl-1H-indol-5-yl)amino)nicotinic acid], the IC50 is at most 10 nM.
